# Experimental data as given in ChEMBL document CHEMBL5465560, “Selectivity Literature for EUbOPEN Chemogenomic Library” (2024).
# Key:
# [1] = target: Cyclin-dependent kinase 5 (Homo sapiens, UniProt Q00535); conditions: at 10 µM
# [2] = target: T1, Serine/threonine-protein kinase RIO1 (Homo sapiens) (UniProt Q9BRS2); assay: Selectivity interaction (Ambit KINOMEscan and KiNATiv profiling in Jurkat cells) EUB0000090b RIOK1; type: cell-based; conditions: at 1 µM
# T1 sequence (whole entry): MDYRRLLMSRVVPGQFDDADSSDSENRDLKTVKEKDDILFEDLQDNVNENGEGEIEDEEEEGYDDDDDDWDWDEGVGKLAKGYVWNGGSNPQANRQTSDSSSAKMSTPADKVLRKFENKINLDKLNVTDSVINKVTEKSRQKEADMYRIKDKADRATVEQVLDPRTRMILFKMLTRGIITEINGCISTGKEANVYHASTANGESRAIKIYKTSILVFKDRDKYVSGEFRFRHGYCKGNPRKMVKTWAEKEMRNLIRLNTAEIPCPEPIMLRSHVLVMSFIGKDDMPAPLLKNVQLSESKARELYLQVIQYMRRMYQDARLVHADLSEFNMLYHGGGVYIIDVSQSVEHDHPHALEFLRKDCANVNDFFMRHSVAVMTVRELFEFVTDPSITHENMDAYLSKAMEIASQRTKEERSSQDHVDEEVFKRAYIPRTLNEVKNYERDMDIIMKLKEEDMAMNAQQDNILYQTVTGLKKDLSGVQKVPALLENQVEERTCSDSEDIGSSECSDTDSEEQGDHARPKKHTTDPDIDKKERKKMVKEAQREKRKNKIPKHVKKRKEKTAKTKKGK
# [3] = tested on: Epidermal growth factor receptor (Homo sapiens), P00533 [UNDEFINED MUTATION]; assay: Selectivity interaction (KinomeScan (DiscoverX)) EUB0001619a EGFR; conditions: at 1 µM
# Epidermal growth factor receptor (Homo sapiens), P00533 [UNDEFINED MUTATION], sequence (P00533 whole entry, looked up, change not shown): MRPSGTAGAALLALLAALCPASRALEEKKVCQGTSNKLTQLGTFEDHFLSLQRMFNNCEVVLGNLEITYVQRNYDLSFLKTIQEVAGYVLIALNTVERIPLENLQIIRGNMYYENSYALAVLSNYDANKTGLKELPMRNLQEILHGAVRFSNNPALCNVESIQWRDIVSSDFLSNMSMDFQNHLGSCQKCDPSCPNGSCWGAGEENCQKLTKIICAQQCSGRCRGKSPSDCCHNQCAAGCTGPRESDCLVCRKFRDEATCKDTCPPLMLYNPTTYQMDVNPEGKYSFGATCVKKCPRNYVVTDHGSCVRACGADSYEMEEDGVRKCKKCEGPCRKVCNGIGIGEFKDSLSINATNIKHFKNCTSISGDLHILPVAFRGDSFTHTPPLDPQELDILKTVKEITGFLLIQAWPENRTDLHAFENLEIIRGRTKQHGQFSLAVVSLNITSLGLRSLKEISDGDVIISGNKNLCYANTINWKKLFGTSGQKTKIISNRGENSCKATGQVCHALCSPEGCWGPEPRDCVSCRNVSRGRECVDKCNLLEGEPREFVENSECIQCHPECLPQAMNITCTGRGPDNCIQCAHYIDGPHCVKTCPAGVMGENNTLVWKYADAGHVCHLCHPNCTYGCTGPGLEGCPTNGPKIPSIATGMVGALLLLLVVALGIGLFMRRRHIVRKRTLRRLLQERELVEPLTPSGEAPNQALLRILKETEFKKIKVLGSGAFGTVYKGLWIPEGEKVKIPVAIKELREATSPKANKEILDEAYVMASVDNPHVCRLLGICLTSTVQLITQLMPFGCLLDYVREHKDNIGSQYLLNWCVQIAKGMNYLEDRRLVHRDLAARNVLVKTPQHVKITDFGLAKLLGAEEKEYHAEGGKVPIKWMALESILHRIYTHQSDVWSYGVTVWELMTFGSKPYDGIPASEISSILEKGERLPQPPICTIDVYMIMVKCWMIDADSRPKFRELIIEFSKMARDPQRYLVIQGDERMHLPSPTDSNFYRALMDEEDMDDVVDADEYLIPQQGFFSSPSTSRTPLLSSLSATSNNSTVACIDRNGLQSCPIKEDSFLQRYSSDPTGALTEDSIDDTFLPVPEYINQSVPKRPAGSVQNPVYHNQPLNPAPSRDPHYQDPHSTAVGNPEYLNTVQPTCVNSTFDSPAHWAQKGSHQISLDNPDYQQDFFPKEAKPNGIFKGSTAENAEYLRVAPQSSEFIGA
# [4] = target: Tyrosine-protein kinase Lck (Homo sapiens, UniProt P06239); conditions: at 10 µM
# Tyrosine-protein kinase Lck, sequence (P06239 2-509 limits assumed): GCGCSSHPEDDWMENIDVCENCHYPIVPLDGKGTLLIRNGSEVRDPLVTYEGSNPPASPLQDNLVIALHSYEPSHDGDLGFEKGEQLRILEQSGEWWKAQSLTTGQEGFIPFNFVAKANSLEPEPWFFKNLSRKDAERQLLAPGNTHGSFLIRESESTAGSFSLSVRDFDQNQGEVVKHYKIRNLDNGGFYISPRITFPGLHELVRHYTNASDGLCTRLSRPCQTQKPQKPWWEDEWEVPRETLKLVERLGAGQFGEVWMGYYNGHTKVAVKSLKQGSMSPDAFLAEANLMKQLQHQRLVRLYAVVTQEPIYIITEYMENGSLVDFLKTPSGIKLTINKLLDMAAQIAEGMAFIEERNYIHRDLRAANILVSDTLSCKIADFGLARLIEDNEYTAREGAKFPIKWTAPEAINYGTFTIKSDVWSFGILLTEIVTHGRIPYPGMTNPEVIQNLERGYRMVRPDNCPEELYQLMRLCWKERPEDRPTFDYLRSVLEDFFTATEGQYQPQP
# [5] = tested on: Leucine-rich repeat serine/threonine-protein kinase 2 (Homo sapiens), Q5S007 [G2019S]; conditions: at 10 µM
# [6] = target: Cyclin-dependent kinase 9 (Homo sapiens, UniProt P50750); assay: Selectivity interaction (ActivX KiNativ screen (kinase selectivity in THP-1 cell lysates)) EUB0000639a CDK9; type: subcellular; conditions: lysate
# Cyclin-dependent kinase 9, sequence (P50750 whole entry): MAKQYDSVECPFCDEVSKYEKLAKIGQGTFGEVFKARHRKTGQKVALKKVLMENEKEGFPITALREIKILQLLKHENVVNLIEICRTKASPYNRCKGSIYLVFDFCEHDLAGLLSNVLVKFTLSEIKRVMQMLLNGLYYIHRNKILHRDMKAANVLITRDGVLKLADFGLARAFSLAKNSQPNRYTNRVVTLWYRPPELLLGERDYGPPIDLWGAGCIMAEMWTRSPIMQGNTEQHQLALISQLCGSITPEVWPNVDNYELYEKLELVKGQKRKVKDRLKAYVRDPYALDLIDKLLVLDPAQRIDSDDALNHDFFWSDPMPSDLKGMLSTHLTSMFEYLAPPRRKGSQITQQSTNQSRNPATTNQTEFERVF
# [7] = target: Interleukin-1 receptor-associated kinase 1 (Homo sapiens) (UniProt P51617); assay: Selectivity interaction (ProQinase) EUB0000171b IRAK1
# Interleukin-1 receptor-associated kinase 1 (Homo sapiens), sequence (P51617 whole entry, looked up): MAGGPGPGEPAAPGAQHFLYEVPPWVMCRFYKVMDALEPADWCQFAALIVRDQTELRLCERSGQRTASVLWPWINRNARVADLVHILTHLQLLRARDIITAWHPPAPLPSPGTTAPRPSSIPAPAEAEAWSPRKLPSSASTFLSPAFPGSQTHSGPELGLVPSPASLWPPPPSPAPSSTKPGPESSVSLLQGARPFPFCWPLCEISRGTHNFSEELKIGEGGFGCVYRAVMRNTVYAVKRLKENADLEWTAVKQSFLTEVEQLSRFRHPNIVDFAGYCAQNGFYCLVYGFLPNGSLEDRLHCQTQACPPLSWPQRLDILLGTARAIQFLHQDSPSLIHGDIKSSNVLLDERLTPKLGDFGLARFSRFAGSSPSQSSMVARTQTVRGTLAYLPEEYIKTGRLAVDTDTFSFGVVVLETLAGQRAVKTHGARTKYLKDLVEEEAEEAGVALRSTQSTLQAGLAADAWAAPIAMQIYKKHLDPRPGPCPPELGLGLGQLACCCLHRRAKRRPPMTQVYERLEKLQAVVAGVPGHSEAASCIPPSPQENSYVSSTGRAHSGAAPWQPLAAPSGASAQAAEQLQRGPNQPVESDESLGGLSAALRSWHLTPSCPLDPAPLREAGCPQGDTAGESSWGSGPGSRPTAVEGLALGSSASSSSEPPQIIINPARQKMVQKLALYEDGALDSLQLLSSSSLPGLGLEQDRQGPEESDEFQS
# [8] = target: Ribosomal protein S6 kinase beta-2 (Homo sapiens) (UniProt Q9UBS0); assay: Selectivity interaction (ProQinase) EUB0000171b RPS6KB2
# Ribosomal protein S6 kinase beta-2 (Homo sapiens), sequence (Q9UBS0 whole entry): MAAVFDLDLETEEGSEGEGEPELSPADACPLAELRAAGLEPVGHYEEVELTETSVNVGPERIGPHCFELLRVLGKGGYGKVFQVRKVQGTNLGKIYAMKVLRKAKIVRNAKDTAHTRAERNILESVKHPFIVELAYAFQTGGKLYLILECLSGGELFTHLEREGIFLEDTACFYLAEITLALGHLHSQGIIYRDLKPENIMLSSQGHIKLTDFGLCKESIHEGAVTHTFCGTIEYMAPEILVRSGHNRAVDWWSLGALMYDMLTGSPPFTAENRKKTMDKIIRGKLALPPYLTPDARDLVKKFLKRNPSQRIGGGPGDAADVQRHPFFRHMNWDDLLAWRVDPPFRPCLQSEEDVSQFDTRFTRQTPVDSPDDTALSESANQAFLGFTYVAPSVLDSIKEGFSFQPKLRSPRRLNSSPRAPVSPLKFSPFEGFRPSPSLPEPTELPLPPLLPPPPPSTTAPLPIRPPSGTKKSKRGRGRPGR
# [9] = target: T2, Serine/threonine-protein kinase ICK (Homo sapiens) (UniProt Q9UPZ9); assay: Selectivity interaction (KinomeScan (DiscoverX)) EUB0001049a ICK; conditions: at 1 µM
# T2 sequence (whole entry): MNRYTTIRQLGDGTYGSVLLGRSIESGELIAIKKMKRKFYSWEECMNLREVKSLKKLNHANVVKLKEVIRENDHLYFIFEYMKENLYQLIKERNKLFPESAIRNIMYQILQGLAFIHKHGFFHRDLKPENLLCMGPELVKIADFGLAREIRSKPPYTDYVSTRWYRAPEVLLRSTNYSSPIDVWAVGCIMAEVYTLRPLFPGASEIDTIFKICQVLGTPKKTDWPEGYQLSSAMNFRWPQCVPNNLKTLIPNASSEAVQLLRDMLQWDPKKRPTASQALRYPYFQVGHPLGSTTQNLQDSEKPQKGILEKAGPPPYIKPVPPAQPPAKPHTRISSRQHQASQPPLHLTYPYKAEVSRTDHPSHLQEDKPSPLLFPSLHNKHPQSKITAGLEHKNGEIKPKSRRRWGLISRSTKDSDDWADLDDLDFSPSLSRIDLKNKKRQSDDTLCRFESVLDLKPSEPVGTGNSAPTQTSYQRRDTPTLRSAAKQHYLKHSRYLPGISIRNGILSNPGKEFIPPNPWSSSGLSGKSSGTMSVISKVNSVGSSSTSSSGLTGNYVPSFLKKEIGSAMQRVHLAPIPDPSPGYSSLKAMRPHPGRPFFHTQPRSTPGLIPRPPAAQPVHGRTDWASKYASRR
# [10] = target: Activin receptor type-1-like (Homo sapiens) (UniProt P37023); assay: Selectivity interaction (KinomeScan (DiscoverX)) EUB0000092b ACVRL1; conditions: at 10 µM
# Activin receptor type-1-like (Homo sapiens), sequence (P37023 whole entry): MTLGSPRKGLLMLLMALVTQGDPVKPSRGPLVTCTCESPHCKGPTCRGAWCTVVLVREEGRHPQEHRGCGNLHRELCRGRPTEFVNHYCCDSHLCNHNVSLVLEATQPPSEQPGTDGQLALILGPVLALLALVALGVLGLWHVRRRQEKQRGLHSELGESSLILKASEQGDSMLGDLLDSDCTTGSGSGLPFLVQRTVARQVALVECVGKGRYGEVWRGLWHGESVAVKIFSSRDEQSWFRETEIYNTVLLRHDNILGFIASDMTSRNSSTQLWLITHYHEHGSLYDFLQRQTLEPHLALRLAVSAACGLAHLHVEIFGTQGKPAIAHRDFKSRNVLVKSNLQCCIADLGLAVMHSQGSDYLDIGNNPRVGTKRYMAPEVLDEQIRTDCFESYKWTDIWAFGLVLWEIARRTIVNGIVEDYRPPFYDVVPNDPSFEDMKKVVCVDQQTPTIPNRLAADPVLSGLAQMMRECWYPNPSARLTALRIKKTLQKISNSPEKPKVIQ
# [11] = tested on: T3, Receptor-type tyrosine-protein kinase FLT3 (Homo sapiens), P36888 [D835Y]; assay: Selectivity interaction (Kinase panel (Z-LYTE Assay)) EUB0001632a FLT3; conditions: at 10 µM
# T3 sequence (whole entry): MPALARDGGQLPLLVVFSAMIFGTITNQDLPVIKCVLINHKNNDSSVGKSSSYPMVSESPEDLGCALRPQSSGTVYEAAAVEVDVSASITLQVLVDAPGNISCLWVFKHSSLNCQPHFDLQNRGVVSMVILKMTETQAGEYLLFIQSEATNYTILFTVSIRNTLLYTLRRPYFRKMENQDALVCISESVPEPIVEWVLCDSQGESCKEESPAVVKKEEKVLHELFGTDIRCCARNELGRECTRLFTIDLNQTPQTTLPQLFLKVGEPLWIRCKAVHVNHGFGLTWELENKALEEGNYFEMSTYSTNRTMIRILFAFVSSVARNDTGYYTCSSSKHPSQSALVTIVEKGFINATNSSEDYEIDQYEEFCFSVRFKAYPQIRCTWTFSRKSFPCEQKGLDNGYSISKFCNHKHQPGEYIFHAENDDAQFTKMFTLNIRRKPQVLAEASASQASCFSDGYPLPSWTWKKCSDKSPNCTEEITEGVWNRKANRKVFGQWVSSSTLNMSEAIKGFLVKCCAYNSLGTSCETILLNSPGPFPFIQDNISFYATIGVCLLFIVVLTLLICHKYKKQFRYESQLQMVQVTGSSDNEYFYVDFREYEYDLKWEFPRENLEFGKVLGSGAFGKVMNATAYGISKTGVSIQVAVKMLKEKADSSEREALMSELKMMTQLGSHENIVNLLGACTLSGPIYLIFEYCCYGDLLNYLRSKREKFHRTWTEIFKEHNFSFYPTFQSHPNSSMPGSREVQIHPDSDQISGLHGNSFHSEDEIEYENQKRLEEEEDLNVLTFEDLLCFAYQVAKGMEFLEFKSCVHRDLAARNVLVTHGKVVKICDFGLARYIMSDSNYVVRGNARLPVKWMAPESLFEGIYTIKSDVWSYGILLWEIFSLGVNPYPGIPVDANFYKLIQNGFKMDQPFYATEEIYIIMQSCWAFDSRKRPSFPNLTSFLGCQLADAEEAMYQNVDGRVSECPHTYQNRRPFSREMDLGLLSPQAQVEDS
# [12] = target: Serine/threonine-protein kinase PLK1 (Homo sapiens, UniProt P53350); assay: Selectivity interaction (KinomeScan (DiscoverX)) EUB0000695a PLK1; conditions: at 100 nM
# Serine/threonine-protein kinase PLK1, sequence (P53350 whole entry): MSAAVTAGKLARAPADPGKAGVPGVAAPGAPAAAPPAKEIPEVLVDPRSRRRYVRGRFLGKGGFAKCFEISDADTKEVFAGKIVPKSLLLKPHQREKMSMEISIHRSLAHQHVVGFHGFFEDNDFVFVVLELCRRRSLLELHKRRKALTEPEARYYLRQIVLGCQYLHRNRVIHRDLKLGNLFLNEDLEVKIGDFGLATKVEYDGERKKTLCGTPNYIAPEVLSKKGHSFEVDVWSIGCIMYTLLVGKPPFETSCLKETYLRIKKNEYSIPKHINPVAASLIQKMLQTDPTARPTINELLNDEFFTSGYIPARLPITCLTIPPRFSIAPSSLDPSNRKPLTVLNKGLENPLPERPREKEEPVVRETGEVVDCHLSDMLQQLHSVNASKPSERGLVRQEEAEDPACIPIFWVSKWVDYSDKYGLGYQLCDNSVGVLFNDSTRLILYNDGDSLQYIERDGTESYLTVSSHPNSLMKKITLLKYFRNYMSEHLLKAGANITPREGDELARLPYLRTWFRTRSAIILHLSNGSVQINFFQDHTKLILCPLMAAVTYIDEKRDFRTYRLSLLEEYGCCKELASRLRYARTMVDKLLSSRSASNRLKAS
# Cyclin-dependent kinase 5, sequence (Q00535 whole entry, looked up): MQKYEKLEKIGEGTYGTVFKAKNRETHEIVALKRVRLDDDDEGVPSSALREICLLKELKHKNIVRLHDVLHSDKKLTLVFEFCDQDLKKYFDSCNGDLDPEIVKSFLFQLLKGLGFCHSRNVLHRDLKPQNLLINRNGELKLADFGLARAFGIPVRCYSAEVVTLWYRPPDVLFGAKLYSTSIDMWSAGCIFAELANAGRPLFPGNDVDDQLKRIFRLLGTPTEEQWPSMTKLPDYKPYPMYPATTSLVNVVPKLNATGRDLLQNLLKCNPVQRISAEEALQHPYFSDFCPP
smiles,measurement,setting,value
CCN(CC)CCCCNc1ncc2cc(-c3cc(OC)cc(OC)c3)c(NC(=O)NC(C)(C)C)nc2n1,% of control,[1],100%
CN(C)C/C=C/C(=O)Nc1ccc(C(=O)N2CCCC(Nc3ncc(Cl)c(-c4c[nH]c5ccccc45)n3)C2)cc1 (stereo not drawn),% of control,[2],100%
N#Cc1cccc(-c2c[nH]c3ncnc(N4CCOCC4)c23)c1,% of control,[3],79%
Cc1cc([C@@H](C)Nc2ccccc2C(=O)O)c2nc(N3CCOCC3)cc(=O)n2c1 [AZD-6482],% of control,[4],97%
same,% of control,[5],100%
CC[C@@H]1[C@H](F)C(=O)N[C@@H]1COc1nccc2cc(C(N)=O)c(OC)cc12 [ZIMLOVISERTIB],% of inhibition,[6]; at 0.01 µM,16.2%
same,% of inhibition,[6]; at 0.04 µM,0.9%
same,% of inhibition,[6]; at 0.2 µM,2.5%
same,% of inhibition,[6]; at 1 µM,-1%
same,% of inhibition,[6]; at 5 µM,33%
C=CC(=O)Nc1cccc(C(=O)Nc2ccc(Nc3cc(-c4[nH]c(SC)nc4C)ccn3)cc2)c1,% of control,[7]; at 1 µM,50%
same,% of control,[7]; at 5 µM,11%
same,% of control,[8]; at 1 µM,87%
same,% of control,[8]; at 5 µM,79%
COc1cc(Nc2nc(C)cc(-c3cnn4nc(OC)ccc34)n2)cc(C(F)(F)F)c1,% of control,[9],85%
CCC(=O)N1CCN(c2ccc(-n3c(=O)ccc4cnc5ccc(-c6cnc7ccccc7c6)cc5c43)cc2C(F)(F)F)CC1,% of control,[10],83%
Cn1cc(-n2cnc3c(NCc4nc5cc(Cl)c(Cl)cc5[nH]4)nc(N4CCOCC4)nc32)cn1,% of control,[11],33.4%
Cc1cc(F)c(C(=O)Nc2cccc(-c3nncn3C(C)C)n2)cc1-n1cnc(C2CC2)c1,% of control,[12],100%
